Values of other authors in patent US20230380420A1, “HARD SURFACE DISINFECTING COMPOSITION” (priority 2020, published 2023).

details: alcohols; room temperature

~δp	SMILES
~4.3 MPa^1/2	CCC(CC)CO [2-ethyl-1-butanol]
~6.1 MPa^1/2	CC(C)O [2-propanol]
~6.4 MPa^1/2	CCCC(C)O (stereo not drawn) [2-pentanol]
~10.0 MPa^1/2	CCCCCCCCCCO [1-decanol]
~10.0 MPa^1/2	CCCCCCCCC(C)O (stereo not drawn) [2-decanol]
~5.7 MPa^1/2	CCCCO [1-butanol]
~4.5 MPa^1/2	CCCCCO [1-pentanol]
~3.3 MPa^1/2	CCCCCCCCO [octanol]
~3.3 MPa^1/2	CCCCC(CC)CO (stereo not drawn) [2-ethyl-hexanol]
~2.6 MPa^1/2	CCCCCCCC/C=C\CCCCCCCCO [oleyl alcohol]
~6.8 MPa^1/2	CCCO [1-propanol]
~7.3 MPa^1/2	CC(C)CCCCCO [isooctyl alcohol]
~7.6 MPa^1/2	OC1C=CCC1 (stereo not drawn) [2-cyclopentenyl alcohol]
~8.8 MPa^1/2	CCO [ethanol]
~7.5 MPa^1/2	OCc1ccc(Cl)cc1 [4-chlorobenzyl alcohol]

SMILES	~δp
CC(C)(C)O [t-butyl alcohol]	~5.1 MPa^1/2
OC1CCCCC1 [cyclohexanol]	~4.1 MPa^1/2
CO [methanol]	~12.3 MPa^1/2
OCC(Cl)CCl (stereo not drawn) [2,3-dichloropropanol]	~9.2 MPa^1/2
C=CCO [2-propenol]	~10.8 MPa^1/2

same assay, conditions: glycol ethers; room temperature

~δp	SMILES
~8.2 MPa^1/2	CC(C)OCCO [ethylene glycol monoisopropyl ether]
~5.6 MPa^1/2	CCCOCC(C)O (stereo not drawn) [propylene glycol monopropyl ether]
~8.2 MPa^1/2	CCCOCCO [ethylene glycol monopropyl ether]
~3.1 MPa^1/2	CCCCCCCC/C=C\CCCCCCCCOCCOCCOCCO [triethylene glycol monooleyl ether]
~9.2 MPa^1/2	CCOCCOCCO [diethylene glycol monoethyl ether]
~6.3 MPa^1/2	COCC(C)O (stereo not drawn) [propylene glycol monomethyl ether]
~4.5 MPa^1/2	CCCCOCC(C)O (stereo not drawn) [propylene glycol monobutyl ether]
~4.7 MPa^1/2	CC(C)COCC(C)O (stereo not drawn) [propylene glycol monoisobutyl ether]
~5.1 MPa^1/2	CCCCOCCO [ethylene glycol monobutyl ether]
~5.9 MPa^1/2	OCCOCc1ccccc1 [ethylene glycol monobenzyl ether]
~6.5 MPa^1/2	CCOCC(C)O (stereo not drawn) [propylene glycol monoethyl ether]
~6.1 MPa^1/2	CC(O)COC(C)C (stereo not drawn) [propylene glycol monoisopropyl ether]
~7.0 MPa^1/2	CCCCOCCOCCO [diethylene glycol mono-n-butyl ether]
~7.6 MPa^1/2	COCCOCCOCCO [triethylene glycol monomethyl ether]

SMILES	~δp
OCCOc1ccccc1 [ethylene glycol monophenyl ether]	~5.7 MPa^1/2
CCOCCO [ethylene glycol monoethyl ether]	~9.2 MPa^1/2
COCCO [ethylene glycol monomethyl ether]	~9.2 MPa^1/2
COCCOCCO [diethylene glycol monomethyl ether]	~7.8 MPa^1/2

same assay, conditions: room temperature

SMILES	δp
O [water]	≈ 16.0 MPa^1/2
